Test results from patent US20120208851A1, “FORMULATIONS” (NEUROSYSTEC CORPORATION, priority 2008, published 2012).

Columns and labels:
[1] = Solubility of gacyclidine base in squalene; assay type: physicochemical
Protocol: Squalene was added to 1 gram of gacyclidine free base in 1 milliliter aliquots until the gacyclidine base went into solution. The minimum amount of squalene required to dissolve 1 gram of gacyclidine base was 9 milliliters. A suspension of gacyclidine-containing squalene was prepared by adding 4.3 milliliters of the gacyclidine solution in squalene (1 gram gacyclidine base dissolved in 9 milliliters squalene), 0.5 milliliters of polysorbate 80, 0.5 milliliters of sorbitan trioleate, 35 milligrams of dipotassium phosphate, 1 milligram of citric acid, and 877 milligrams of sodium chloride to a graduated cylinder and bringing the mixture to a final volume of 100 milliliters with water. The suspension of squalene-gacyclidine in phosphate buffered saline was passed through a Microfluidics M-110S high pressure homogenizer equipped with a G10Z 87 micrometer ceramic interaction chamber at 23,000 pounds per square inch. After 7 passes through the homogenizer with the interaction chamber maintained in an ice bath, the average particle diameter of the squalene-gacyclidine emulsion was determined to be 135 nanometers by use of a Horiba LB-550 dynamic light scattering particle size analyzer. After 7 additional passes of the emulsion through the homogenizer with the interaction chamber maintained in an ice bath, the average particle diameter was determined to be 122 nanometers. After 7 additional passes of the emulsion through the homogenizer with the interaction chamber maintained in an ice bath, the average particle diameter was determined to be 114 nanometers. After 7 additional passes of the emulsion through the homogenizer with the interaction chamber maintained in an ice bath, the average particle diameter was determined to be 112 nanometers. Extensive analysis of the squalene-gacyclidine emulsion determined that the average particle diameter was between 107 to 123 nanometers. The pH and osmolality of the squalene-gacyclidine emulsion were determined to be 7.6 and 279 milliosmolal, respectively.

[2] = Binding of gacyclidine by PLGA nanoparticles (gacyclidine in suspension by HPLC); assay type: physicochemical
Description: Water (pH 7.2) was mixed with acetone solutions containing 2 grams/liter 5050 DLG 3E (PLGA, Lakeshore Biomaterials, solution A) or a solution of 2 grams/liter 5050 DLG 3E and 2 grams/liter gacyclidine base (solution B) or a solution of 2 grams/liter gacyclidine base (solution C). Rapid mixing was accomplished by pumping water into a T-mixer at 5 milliliters/minute and solution A, B, or C into the same T-mixer at 1 milliliter/minute.
Acetone was eliminated from the suspension of particles prepared by mixing water with solution B by stirring the suspension in an open beaker for three days. The particle suspension was then passed through a 0.2 micrometer polyethersulfone syringe filter (VWR International) to eliminate larger particles. […] These nanoparticles were then concentrated by pressure dialysis with a 10,000 MWCO cellulose membrane (Amicon) to a final volume of 17 milliliters. The average particle diameter in the concentrated suspension was determined to be 53 nanometers by dynamic light scattering.
To determine the gacyclidine concentration in the nanoparticle suspension, an aliquot (20 to 50 microliters) was diluted with 10 millimolar hydrochloric acid to a final volume of 1.8 milliliter and then analyzed by high-performance liquid chromatography. Gacyclidine in the concentrated suspension was determined to be 0.68 millimolar (0.18 grams/liter; 3.1 milligrams gacyclidine base; 8% of the initial gacyclidine). When this suspension was passed through a 0.2 micrometer polyethersulfone syringe filter (VWR International) it further reduced the concentration of gacyclidine to 0.23 millimolar (0.06 grams/liter; 1.0 milligrams gacyclidine base; 2.5% of the initial gacyclidine). […] After filtration of the pH 9.1 nanoparticle suspension through a 0.2 micrometer polyethersulfone syringe filter (VWR International) the concentration of particles was not reduced, based on light scattering intensity, nor was the average diameter of particles (58 nanometers, post-filtration) substantially altered. However, the concentration of gacyclidine present in the nanoparticle suspension, after adjusting the pH to 9.1 and passage through a 0.2 micrometer filter, was reduced to approximately 0.02 millimolar (0.005 grams/liter; 0.09 milligrams gacyclidine base; 0.2% of the initial gacyclidine). […] Very little of the gacyclidine in the initial nanoparticle preparation was bound to the PLGA nanoparticles, but was instead dissolved in the aqueous phase surrounding the particles.

[3] = concentrated PLGA suspension passed through 0.2 micrometer polyethersulfone syringe filter
[4] = pH 9.1, passage through 0.2 micrometer filter

| SMILES | limit of solubility in the squalene phase [1] | minimum amount of squalene required to dissolve 1 gram of gacyclidine base ([1]; squalene added in 1 milliliter aliquots) | % of the initial gacyclidine in the concentrated suspension ([2]; PLGA+gacyclidine nanoparticles after 0.2 micrometer filtration and pressure dialysis concentration) | Gacyclidine in the concentrated suspension ([2]; PLGA+gacyclidine nanoparticles after 0.2 micrometer filtration and pressure dialysis concentration, HPLC) | affinity for PLGA ([2]; based on final amount of gacyclidine remaining associated with PLGA nanoparticles) | % of the initial gacyclidine after passing concentrated suspension through 0.2 micrometer filter [2, 3] | concentration of gacyclidine after passing concentrated suspension through 0.2 micrometer filter [2, 3] | % of the initial gacyclidine after adjusting pH to 9.1 and filtration [2, 4] | concentration of gacyclidine in the nanoparticle suspension after adjusting pH to 9.1 and filtration [2, 4] |
| --- | --- | --- | --- | --- | --- | --- | --- | --- | --- |
| CC1CCCCC1(c1cccs1)N1CCCCC1 (stereo not shown) [gacyclidine] | 1 gram of gacyclidine for every 9 milliliters of squalene | 9 milliliters | 8% | 0.68 millimolar | does not have a high affinity for PLGA | 2.5% | 0.23 millimolar | 0.2% | approximately 0.02 millimolar |
| CNC1(c2ccccc2Cl)CCCCC1=O (stereo not shown) [ketamine] | similar |  |  |  |  |  |  |  |  |
